Where two headings read alike, the source gives them in different places.
What was measured:
[1] = tested on: Y box protein (TSEP-1) RNA; test: Northern analysis of Y box protein (TSEP-1) RNA levels in FRTL-5 cells; format: cell-based, rat; conditions: 40 hours
Text: Whereas γ-IFN decreases Y box protein RNA levels in FRTL-5 cells, MMI can reverse this action (FIG. 16). […] The rat TSEP-1 probe was the clone 31 insert, residues 5 to 1395 of the rat TSEP-1 nucleotide sequence reported (Ohmori, M., et al., ibid (1996)); rat β-actin was kindly provided by Dr. B. Paterson (NCI, Bethesda, Md.). Radiolabeling of all probes, hybridization (0.5-1.0×10^6cpm/ml), and washing were as described (Isozaki, O., et al., ibid (1989); Saji, M., et al., ibid (1992); Ohmori, M., et al., ibid (1996)).
The ability of the compounds to reverse the γ-IFN-induced decrease in TSEP-1 RNA levels is once again 10>11>7 or 8>2>MMI>3. This mimics data in all other assays.

[2] = tested on: swine class I promoter (PD1); test: Transient transfection CAT assay, class I promoter chimeras in FRTL-5 cells; format: cell-based; conditions: for inhibition at 10 µM / inhibition at 25 µM / inhibition at 100 µM / inhibition at 1000 µM / inhibition at 5000 µM: Sus scrofa; for CAT activity +γIFN (100 U/ml) + MMI (5 mM) / CAT activity +γIFN (100 U/ml): 5H medium
Text: The full length PD1 promoter, PD1 CAT construct pH […], inserted into the multicloning site of pSV3CAT, has been previously described (Erhlich, R. et al. Immunogenetics 30:18-26 (1989)). […] The deletion series was also cloned into the pSV3CAT reporter construct to assess promoter activities (Weisman J D, et al. ibid (1991); Maguire, J. et al., Mol. Cell. Biol., 12:3078-3086 (1992)). […] The number denotes the most 5′-residue in the 5′-flanking region of the PD1 promoter.
FRTL-5 rat thyroid cells (Interthyr Research Foundation, Baltimore, Md.; ATCC CRL8305) were the same subclone (F1) used in the gel shift experiments described earlier. They were grown in the following medium: Coon's modified F-12 medium containing 5% heat-treated, mycoplasma-free calf serum, 1 mM nonessential amino acids, and a mixture of six hormones (6H) containing bovine TSH (1×10^−10M), insulin (10 μg/ml), cortisol (0.4 ng/ml), transferrin (5 μg/ml), glycyl-L-histidyl-L-lysine acetate (10 ng/ml), and somatostatin (10 ng/ml). Cells were diploid and between their 5th and 25th passage. Fresh medium was added every 2 or 3 days and cells were passaged every 7-10 days. In some experiments, cells were grown to near confluency in 6H medium then maintained for 5-8 days, before experiments were initiated, in 5H medium with no TSH.
To measure the promoter activity of MHC class I promoter constructs, as reported by CAT activity, two procedures were used. In one, rat FRTL-5 thyroid cells were transfected by the electroporation method described previously (Saji, M., et al., ibid (1992b); Giuliani, C., et al., ibid (1995); Saji, M., et al., ibid (1997)). In brief, FRTL-5 cells were grown to 80% confluence, put in fresh 6H medium containing 5% calf serum for 12 hours, harvested, washed and suspended at 1.5×10^7 cells/mil in 0.8 ml electroporation buffer (272 mM sucrose, 7 mM sodium phosphate at pH 7.4, and 1 mM MgCl2). Twenty μg of the full-length CAT construct were added with 5 μg pSVGH. Cells were then pulsed (330 volts, capacitance 25 μfarad), plated (approximately 6×10^6 cell/dish), and cultured for 12 hours in 6H medium containing 5% calf serum. […] After 48 hours they were harvested. […] Medium was taken for hGH radioimmunoassay to monitor transfection efficiency (Nichols Institute, San Juan Capistrano, Calif.) and cells were harvested for CAT assays which used 20-50 μg cell lysate in a final volume of 130 μl. Incubation was at 37° C. for 2 or 4 hours; acetylated chloramphenicol was separated by thin layer chromatograpy (TLC) and positive spots on TLC plates were cut out and quantitated in a scintillation spectrometer. CAT activity was normalized to GH activity and/or cell protein before data were compared.
Alternatively transient transfections used the same class I-CAT chimeras and a DEAE-dextran procedure (Lopata M A, et al., Nucleic Acids Res. 12:5707-5717 (1984); Giuliani C, et al., ibid (1995)). Cells were grown to near (80%) confluency in 6H medium, shifted to 5H medium for 1 day, washed twice with Dulbecco's modified phosphate buffered saline (DPBS), pH 7.4, and incubated 1 hour with 5 ml serum-free 5H medium containing the plasmid DNA plus 250 μg DEAE-dextran (5 Prime-3 Prime, Inc.). Cells were then exposed to 10% dimethylsulfoxide in DPBS for 3 min., washed twice in DPBS, cultured in 5H medium for 24 hours, then maintained therein another 48 hours with or without MMI, MMI derivatives or tautomeric cyclic thiones, as noted. Efficiency of transfection was determined by cotransfection as above or with 5 μg pRSVLuc (De Wet J R, et al., Mol. Cell. Biol. 7:725-737 (1987)).
In this experiment, FRTL-5 cells were grown to near confluency in 6H medium (plus TSH) and then were maintained in 5H medium (no TSH) for 7 days before being treated with γ-IFN or γ-IFN plus MMI for 40 hours. Control cells were those maintained in 5H medium for the same 40 hours. CAT activity was measured as described above.

[3] = tested on: MHC class I antigen expression; test: Flow cytometry of IFN-increased class I antigen expression in FRTL-5 cells; format: cell-based, rat; conditions: 100 U/ml γ-interferon, 6H medium (TSH), 40 hours
Description: In this experiment 10^6 cells were incubated with MHC class II or MHC class I-specific antibodies as described (Montani, V., et al., ibid (1998b); Saji, M., et al., ibid (1992a); Balducci-Silano, P. L., et al., Endocrinology 139:2309-2313 (1998)). After 30 min on ice, cells were washed with phosphate buffered saline at pH 7.4 and incubated for 30 min with fluorescein-isothiocyanate (FITC)-conjugated antibodies then analyzed by flow cytometry on a FACScan Cytometer using CellQuest software (Becton Dickinson).
The concentration needed to achieve suppression of the interferon induced class I or class II surface expression was determined by testing different concentrations of the compounds (Table 18). Like all other assays, the order of effectiveness was compound 10>11>7 or 8>2>MMI>3.

[4] = FRTL-5, 10 μM, 100 U/ml γ-interferon, 6H medium, 40 hours, read-out: % inhibition of IFN-increased p(−203)CAT class I promoter activity
[5] = FRTL-5, 25 μM, 6H medium, 36 hours, read-out: % inhibition of basal p(−203)CAT class I promoter activity
[6] = FRTL-5, 100 μM, 6H medium, 36 hours, read-out: % inhibition of basal p(−203)CAT class I promoter activity
[7] = FRTL-5, 100 μM, 100 U/ml γ-interferon, 6H medium, 40 hours, read-out: % inhibition of IFN-increased p(−203)CAT class I promoter activity
[8] = FRTL-5, 1.0 mM, 6H medium, 36 hours, read-out: % inhibition of basal p(−203)CAT class I promoter activity
[9] = FRTL-5, 1.0 mM, 100 U/ml γ-interferon, 6H medium, 40 hours, read-out: % inhibition of IFN-increased p(−203)CAT class I promoter activity
[10] = FRTL-5, 5 mM, 6H medium, 36 hours, read-out: % inhibition of basal p(−203)CAT class I promoter activity
[11] = FRTL-5, 5 mM, 100 U/ml γ-interferon, 6H medium, 40 hours, read-out: % inhibition of IFN-increased p(−203)CAT class I promoter activity
[12] = FRTL-5, read-out: % inhibition of IFN-increased p(−203)CAT class I promoter activity
[13] = FRTL-5, read-out: % inhibition of basal p(−203)CAT class I promoter activity

Cn1ccnc1S [Compound 1, 1-Methylimidazole-2-thiol]
Y box protein (TSEP-1) RNA level, compound +γIFN ([1]; 100 μM compound + γIFN): 42 ± 7%
Y box protein (TSEP-1) RNA level, compound ALONE ([1]; 100 μM compound alone): 105 ± 8%
Y box protein (TSEP-1) RNA level, compound +γIFN ([1]; 1 mM compound + γIFN): 87 ± 7%
Y box protein (TSEP-1) RNA level, compound ALONE ([1]; 1 mM compound alone): 104 ± 12%
Y box protein (TSEP-1) RNA level, compound +γIFN ([1]; 5 mM compound + γIFN): 149 ± 12%
Y box protein (TSEP-1) RNA level, compound ALONE ([1]; 5 mM compound alone): 115 ± 9%
inhibition at 10 µM [2, 4]: 0%
inhibition at 25 µM [2, 5]: 0%
inhibition at 100 µM [2, 6]: 0%
inhibition at 100 µM [2, 7]: 0%
inhibition at 1000 µM [2, 8]: 32 ± 7%
inhibition at 1000 µM [2, 9]: 35 ± 8%
inhibition at 5000 µM [2, 10]: 74 ± 10%
inhibition at 5000 µM [2, 11]: 72 ± 12%
CAT activity +γIFN (100 U/ml) + MMI (5 mM) ([2]; chimera p(−127), 40 hours): 55 ± 4 % of Control
CAT activity +γIFN (100 U/ml) + MMI (5 mM) ([2]; chimera p(−203), 40 hours): 95 ± 26 % of Control
CAT activity +γIFN (100 U/ml) + MMI (5 mM) ([2]; chimera p(−1100), 40 hours): 163 ± 48 % of Control
CAT activity +γIFN (100 U/ml) + MMI (5 mM) ([2]; pSV0 control plasmid, 40 hours): 38 ± 9 % of Control
Concentration to inhibit IFN-increased antigen expression, Class I [3]: 5 mM

Cc1ncc([N+](=O)[O-])n1CCO [Compound 2, 2-Methyl-5-nitro-1-imidazole ethanol]
Y box protein (TSEP-1) RNA level, compound +γIFN ([1]; 100 μM compound + γIFN): 43 ± 6%
Y box protein (TSEP-1) RNA level, compound ALONE ([1]; 100 μM compound alone): 104 ± 4%
Y box protein (TSEP-1) RNA level, compound +γIFN ([1]; 1 mM compound + γIFN): 126 ± 9%
Y box protein (TSEP-1) RNA level, compound ALONE ([1]; 1 mM compound alone): 106 ± 11%
Y box protein (TSEP-1) RNA level, compound +γIFN ([1]; 5 mM compound + γIFN): 163 ± 15%
Y box protein (TSEP-1) RNA level, compound ALONE ([1]; 5 mM compound alone): 112 ± 4%
inhibition at 10 µM [2, 4]: 0%
inhibition at 25 µM [2, 5]: 0%
inhibition at 100 µM [2, 6]: 10 ± 8%
inhibition at 100 µM [2, 7]: 0%
inhibition at 1000 µM [2, 8]: 37 ± 11%
inhibition at 1000 µM [2, 9]: 45 ± 5%
inhibition at 5000 µM [2, 10]: 74 ± 9%
inhibition at 5000 µM [2, 11]: 84 ± 13%
Concentration to inhibit IFN-increased antigen expression, Class I [3]: 0.5 ± 1.4 mM

Sc1nc2ccccc2[nH]1 [Compound 4, 2-Mercaptobenzimidazole]
inhibition at 10 µM [2, 12]: 0%
inhibition at 100 µM [2, 12]: 0%
inhibition at 1000 µM [2, 12]: 40 ± 8%
inhibition at 5000 µM [2, 12]: 76 ± 10%
inhibition at 25 µM [2, 13]: 0%
inhibition at 100 µM [2, 13]: 0%
inhibition at 1000 µM [2, 13]: 50 ± 12%
inhibition at 5000 µM [2, 13]: 90 ± 14%

O=[N+]([O-])c1ccc2[nH]c(S)nc2c1 [Compound 5, 2-Mercapto-5-nitrobenzimidazole]
inhibition at 5000 µM [2, 10]: 45 ± 8%
inhibition at 5000 µM [2, 11]: 43 ± 9%

Cc1ccc2[nH]c(S)nc2c1 [Compound 6, 2-Mercapto-5-methylbenzimidazole]
inhibition at 5000 µM [2, 10]: 57 ± 13%
inhibition at 5000 µM [2, 11]: 49 ± 7%

Cc1cnc(S)n1C [Compound 9, 5-Methylmethimazole]
inhibition at 10 µM [2, 4]: 0%
inhibition at 25 µM [2, 5]: 0%
inhibition at 100 µM [2, 6]: 0%
inhibition at 100 µM [2, 7]: 0%
inhibition at 1000 µM [2, 8]: 14 ± 10%
inhibition at 1000 µM [2, 9]: 10 ± 10%
inhibition at 5000 µM [2, 10]: 25 ± 7%
inhibition at 5000 µM [2, 11]: 29 ± 11%

B1: γ-IFN: rat recombinant γ-interferon, 100 U/ml, used to increase MHC class I and class II expression in FRTL-5 cells (protein, UniProt P01581 23-156, looked up)
Interferon gamma: QGTLIESLESLKNYFNSSSMDAMEGKSLLLDIWRNWQKDGNTKILESQIISFYLRLFEVLKDNQAISNNISVIESHLITNFFSNSKAKKDAFMSIAKFEVNNPQIQHKAVNELIRVIHQLSPESSLRKRKRSRC
Y box protein (TSEP-1) RNA level +γIFN, % Control ([1]; γ-IFN alone, 100 Units/ml): 45 ± 6%
CAT activity +γIFN (100 U/ml) ([2]; chimera p(−127), 40 hours): 500 ± 27 % of Control
CAT activity +γIFN (100 U/ml) ([2]; chimera p(−203), 40 hours): 750 ± 25 % of Control
CAT activity +γIFN (100 U/ml) ([2]; chimera p(−1100), 40 hours): 460 ± 40 % of Control
CAT activity +γIFN (100 U/ml) ([2]; pSV0 control plasmid, 40 hours): 48 ± 7 % of Control

Source: US6365616B1, “Methimazole derivatives and tautomeric cyclic thiones to treat autoimmune diseases” (Sentron Medical, Inc., priority 1998, dated 2002)
